Source: patent publication US20080220083A1, “Pharmaceutical Agent Comprising Blood Components <10 Kda And Their Use For Prophylaxis And Treatment Of Defects Of The Immune System” (priority 2004, published 2008)

Test system: guinea pig T lymphocytes
Assay: rosette test on guinea pig T lymphocytes in immunosuppressed guinea pigs
Format: in vivo
Description: The composition of the invention was also tested in vivo in various animal systems. Using the rosette test on guinea pig T lymphocytes, the state of cellular immunity under the influence of the composition according to the invention in combination with Oxoplatin, Campto, Taxol and Eloxatin was investigated. In each test, the improvement of the T lymphocyte state in immunosuppressed guinea pigs after administration of the composition according to the invention was tested. Prior to testing, the level of T lymphocytes in the guinea pigs was determined using the rosette test, and subsequently, the decrease in the amount of T lymphocytes caused by the immunosuppressant Azathioprin was determined. A second determination of the T lymphocytes was made seven days after application of Azathioprin. This was followed by subcutaneous application of the composition of the invention into the laboratory animals. The last determination of the T lymphocyte count in the guinea pigs was made 14 to 19 days after application of the composition according to the invention.

Compound | drop in production of rosettes following application of the cytostatic agent (guinea pigs, rosette test) | drop in production of rosettes following application of the cytostatic agent (guinea pig, in vivo)
CCc1c2c(nc3ccc(OC(=O)N4CCC(N5CCCCC5)CC4)cc13)-c1cc3c(c(=O)n1C2)COC(=O)[C@]3(O)CC [Campto] | 23% | 
N.N.[Cl-].[Cl-].[OH-].[OH-].[Pt+4] [Oxoplatin] |  | about 30%
O=C1[O][Pt]2([NH][C@@H]3CCCC[C@H]3[NH]2)[O]C1=O [Eloxatin] |  | 22%
CC(=O)O[C@H]1C(=O)[C@@]2(C)[C@H]([C@H](OC(=O)c3ccccc3)[C@]3(O)C[C@H](OC(=O)[C@H](O)[C@@H](NC(=O)c4ccccc4)c4ccccc4)C(C)=C1C3(C)C)[C@]1(OC(C)=O)CO[C@@H]1C[C@@H]2O [Taxol] |  | 16%
